Measured values as given in US20240335539A1, “MODULATION OF BCL-2 TO ENHANCE CHIMERIC ANTIGEN RECEPTOR CANCER IMMUNOTHERAPY EFFICACY” (The Trustees of the University of Pennsylvania, priority 2021, published 2024).

Experiments:
[1] = test system: NALM6; assay: NALM6 xenograft model; format: in vivo; details: CART19 with or without venetoclax 100 mg/kg daily, oral gavage for five weeks
Description: Either venetoclax (100 mg/kg) or vehicle were administered to the mice via oral gavage daily. To monitor the survival of CART in vivo, mouse blood ([…]) was collected from submandibular vein of mouse on day 15 after CART infusion and measured the absolute number of human CD3+ T cells in mouse blood using flow cytometry. Tumor volume was monitored by measuring luminescen intensity in mouse by IVIS system. […] One-way ANOVA with post-hoc Tukey test was performed. […] All data represent mean±SD. *P<0.05. ns: not significant. UTD: untransduced T cell. CART19: anti-CD19 CAR T cell. CART19-BCL2(WT): BCL-2(WT) overexpressing anti-CD19 CAR T cell.
All data represent mean±SD.
To investigate this hypothesis, the expansion and persistence of CART19 cells in the peripheral blood of NSG mice treated with CART19 plus venetoclax or CART19 alone was analyzed using flow cytometry. […] To test whether prolonged exposure to venetoclax leads to CART cell toxicity, an in vitro venetoclax toxicity assay was performed using CART cells manufactured from 8 different T cell donors. […] In order to discern whether the reduced survival was due to increased apoptosis or reduction of proliferation, the caspase 3/7 activity in CART19 was assessed in the presence or absence of venetoclax. […]

[2] = test system: mantle cell lymphoma (MCL); assay: Clinical outcomes of MCL patients after brexucabtagene autoleucel by venetoclax bridging therapy; format: in vivo, human
Description: FIGS. 13A-13H illustrate the finding that chromosomal alterations of BCL-2 in lymphoma patients associate with poor prognosis of CART therapy. FIG. 13A is a schematic of the strategy used herein to investigate whether genetic alteration of BCL-2 affects CART's anti-tumor clinical response. Pre-CART biopsies from patients with LCL were analyzed by fluorescence in situ hybridization (FISH) to search for BCL-2 chromosomal aberration. […] FIG. 13F is a schematic of the strategy used herein to investigate the impact of venetoclax bridging therapy on CART19's clinical response in MCL patients. […]
For the large B cell lymphoma cohort, clinical data were collected from patients diagnosed with DLBCL not otherwise specified (NOS), high-grade B cell lymphoma (HGBCL) NOS, HGBCL with MYC and BCL-2 and/or BCL-6 rearrangements, and transformed follicular lymphoma treated at the University of Pennsylvania using two commercial CART19 products (tisagenlecleucel or axicabtagene ciloleucel, UPCC44420) or enrolled in the CTL019 clinical trial NCT02030834. Only patients evaluated for chromosomal alterations involving the BCL-2 locus by interim FISH analysis were included in the current study. […] Disease response was determined according to Lugano classification. […]

**Q.** For CC1(C)CCC(CN2CCN(c3ccc(C(=O)NS(=O)(=O)c4ccc(NCC5CCOCC5)c([N+](=O)[O-])c4)c(Oc4cnc5[nH]ccc5c4)c3)CC2)=C(c2ccc(Cl)cc2)C1 [venetoclax], which “Mice showing tumor relapse” value [1] is on record?
**A.** 40%

**Q.** And the “complete response rate after brex-cel” value ([2]; bridging therapy including venetoclax (7/8))?
**A.** 87.5%

**Q.** What about the “patients in complete response at one year” value ([2]; venetoclax bridging therapy before brex-cel) of the same compound?
**A.** 100%
